Experimental data as given in patent publication US20210261553A1, “FUSED TETRAZOLES AS LRRK2 INHIBITORS” (E-SCAPE Bio, Inc., priority 2018, published 2021).

How the values were obtained:
[1] = target: T1, Recombinant wild type LRRK2 protein (Homo sapiens, UniProt Q5S007); assay: LRRK2 kinase activity assay (LanthaScreen TR-FRET), wild type; format: biochemical; conditions: 400 nM LRRKtide, 25 μM ATP, 60 min at room temperature; read-out: LRRK2 WT IC50
T1 construct: purchased Life Technologies PR8604B
Experimental: (§1) LRRK2 kinase activity was measured using a LanthaScreen™ Kinase Activity Assay from ThermoFisher Scientific. Recombinant wild type or G2019S-LRRK2 protein (Life Technologies, PR8604B or PV4881, respectively), was incubated with a fluorescein-labeled peptide substrate called LRRKtide that is based upon ezrin/radixin/moesin (ERM) (Life Technologies, PV4901) in the presence of ATP and serially diluted compound. After an incubation period of 1 hr, the phosphotransferase activity was stopped and a terbium-labelled anti-pERM antibody (Life Technologies, PV4899) was added to detect the phosphorylation of LRRKtide by measuring the time resolved-Forster resonant energy transfer (TR-FRET) signal from the terbium label on the antibody to the fluorescein tag on LRRKtide, expressed as the 520 nm/495 nm emission ratio. Compound-dependent inhibition of the TR-FRET signal was used to generate a concentration-response curve for IC50 determination.
(§2) The assay was carried out under the following protocol conditions: 1 mM compound in DMSO was serially diluted 1:3, 11 points in DMSO with a Biomek FX and 0.1 μL of the diluted compound was subsequently stamped into the assay plate (384-well format Lumitrac 200, Greiner, 781075) with an Echo Labcyte such that the final compound concentration in the assay was 10 μM to […]. Subsequently, 5 μL of 2× kinase solution (2.9 nM final concentration) was added to the assay plate in assay buffer composed of 50 mM Tris pH 8.5 (Sigma, T6791), 5 mM MgCl2 (Fluka, 63020), 1 mM EGTA (Sigma, E3889), 0.01% BRU-35 (Sigma, P1254) and 2 mM DTT. The reaction was started by addition of 2×ATP/LRRKtide solution in assay buffer such that the final concentration was 400 nM LRRKtide and 25 μM ATP. After 60 min incubation at room temperature, the reaction was stopped by addition of […] containing a final concentration of 2 nM anti-pERM antibody and […]. After a 30 min incubation at RT, the TR-FRET signal was measured on a Wallac 2104 EnVision® multilabel reader at an excitation wavelength of 340 nm and reading emission at 520 nm and 495 nm. The ratio of the 520 nm and 495 nm emission was used to analyze the data.

[2] = target: T2, Recombinant G2019S-LRRK2 protein (Homo sapiens, UniProt Q5S007, G2019S); assay: LRRK2 kinase activity assay (LanthaScreen TR-FRET), G2019S mutant; format: biochemical; conditions: 400 nM LRRKtide, 25 μM ATP, 60 min at room temperature
T2 construct: purchased Life Technologies PV4881
Experimental: as §1, §2

T2 sequence (Q5S007 970-2527 G2019S limits assumed): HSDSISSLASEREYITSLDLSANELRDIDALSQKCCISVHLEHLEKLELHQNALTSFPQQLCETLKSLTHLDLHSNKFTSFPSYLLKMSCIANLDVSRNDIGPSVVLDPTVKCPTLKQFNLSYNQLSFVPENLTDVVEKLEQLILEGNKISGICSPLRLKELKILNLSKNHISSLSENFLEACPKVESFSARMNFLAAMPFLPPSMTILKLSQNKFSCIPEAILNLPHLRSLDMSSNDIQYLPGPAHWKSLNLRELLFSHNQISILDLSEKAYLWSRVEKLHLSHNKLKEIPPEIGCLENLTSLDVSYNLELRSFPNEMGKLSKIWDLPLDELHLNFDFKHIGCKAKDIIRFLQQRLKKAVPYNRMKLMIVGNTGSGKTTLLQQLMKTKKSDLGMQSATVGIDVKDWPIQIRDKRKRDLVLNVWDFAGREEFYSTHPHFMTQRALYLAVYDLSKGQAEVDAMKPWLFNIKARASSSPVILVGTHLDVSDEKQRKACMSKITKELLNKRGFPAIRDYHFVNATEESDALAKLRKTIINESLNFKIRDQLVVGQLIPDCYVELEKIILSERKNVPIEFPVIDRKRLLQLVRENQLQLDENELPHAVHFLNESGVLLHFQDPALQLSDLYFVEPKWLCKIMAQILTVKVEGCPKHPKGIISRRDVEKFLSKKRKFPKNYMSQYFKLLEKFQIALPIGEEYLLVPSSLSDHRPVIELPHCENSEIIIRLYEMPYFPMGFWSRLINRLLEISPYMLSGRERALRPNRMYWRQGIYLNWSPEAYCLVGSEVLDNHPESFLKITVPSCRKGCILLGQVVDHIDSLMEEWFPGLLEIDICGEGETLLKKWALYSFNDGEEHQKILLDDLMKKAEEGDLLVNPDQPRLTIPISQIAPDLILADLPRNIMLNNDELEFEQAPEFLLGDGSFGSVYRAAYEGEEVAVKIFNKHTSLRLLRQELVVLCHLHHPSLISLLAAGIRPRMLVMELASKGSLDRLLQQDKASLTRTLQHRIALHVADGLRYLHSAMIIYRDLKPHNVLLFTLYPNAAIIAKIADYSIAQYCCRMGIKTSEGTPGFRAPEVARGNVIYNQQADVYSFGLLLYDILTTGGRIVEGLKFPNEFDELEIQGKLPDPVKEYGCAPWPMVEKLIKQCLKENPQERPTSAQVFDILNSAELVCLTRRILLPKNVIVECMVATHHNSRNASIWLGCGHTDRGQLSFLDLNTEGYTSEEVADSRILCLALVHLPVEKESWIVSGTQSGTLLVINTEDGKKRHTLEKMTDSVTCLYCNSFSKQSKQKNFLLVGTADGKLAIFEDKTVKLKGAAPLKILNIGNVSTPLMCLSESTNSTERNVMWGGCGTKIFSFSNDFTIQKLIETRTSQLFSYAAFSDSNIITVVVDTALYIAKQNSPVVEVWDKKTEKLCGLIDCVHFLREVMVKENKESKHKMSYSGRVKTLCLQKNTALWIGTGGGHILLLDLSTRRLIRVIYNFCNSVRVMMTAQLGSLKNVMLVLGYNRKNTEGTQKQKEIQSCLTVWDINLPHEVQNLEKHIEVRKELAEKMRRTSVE
T1 sequence (Q5S007 whole entry): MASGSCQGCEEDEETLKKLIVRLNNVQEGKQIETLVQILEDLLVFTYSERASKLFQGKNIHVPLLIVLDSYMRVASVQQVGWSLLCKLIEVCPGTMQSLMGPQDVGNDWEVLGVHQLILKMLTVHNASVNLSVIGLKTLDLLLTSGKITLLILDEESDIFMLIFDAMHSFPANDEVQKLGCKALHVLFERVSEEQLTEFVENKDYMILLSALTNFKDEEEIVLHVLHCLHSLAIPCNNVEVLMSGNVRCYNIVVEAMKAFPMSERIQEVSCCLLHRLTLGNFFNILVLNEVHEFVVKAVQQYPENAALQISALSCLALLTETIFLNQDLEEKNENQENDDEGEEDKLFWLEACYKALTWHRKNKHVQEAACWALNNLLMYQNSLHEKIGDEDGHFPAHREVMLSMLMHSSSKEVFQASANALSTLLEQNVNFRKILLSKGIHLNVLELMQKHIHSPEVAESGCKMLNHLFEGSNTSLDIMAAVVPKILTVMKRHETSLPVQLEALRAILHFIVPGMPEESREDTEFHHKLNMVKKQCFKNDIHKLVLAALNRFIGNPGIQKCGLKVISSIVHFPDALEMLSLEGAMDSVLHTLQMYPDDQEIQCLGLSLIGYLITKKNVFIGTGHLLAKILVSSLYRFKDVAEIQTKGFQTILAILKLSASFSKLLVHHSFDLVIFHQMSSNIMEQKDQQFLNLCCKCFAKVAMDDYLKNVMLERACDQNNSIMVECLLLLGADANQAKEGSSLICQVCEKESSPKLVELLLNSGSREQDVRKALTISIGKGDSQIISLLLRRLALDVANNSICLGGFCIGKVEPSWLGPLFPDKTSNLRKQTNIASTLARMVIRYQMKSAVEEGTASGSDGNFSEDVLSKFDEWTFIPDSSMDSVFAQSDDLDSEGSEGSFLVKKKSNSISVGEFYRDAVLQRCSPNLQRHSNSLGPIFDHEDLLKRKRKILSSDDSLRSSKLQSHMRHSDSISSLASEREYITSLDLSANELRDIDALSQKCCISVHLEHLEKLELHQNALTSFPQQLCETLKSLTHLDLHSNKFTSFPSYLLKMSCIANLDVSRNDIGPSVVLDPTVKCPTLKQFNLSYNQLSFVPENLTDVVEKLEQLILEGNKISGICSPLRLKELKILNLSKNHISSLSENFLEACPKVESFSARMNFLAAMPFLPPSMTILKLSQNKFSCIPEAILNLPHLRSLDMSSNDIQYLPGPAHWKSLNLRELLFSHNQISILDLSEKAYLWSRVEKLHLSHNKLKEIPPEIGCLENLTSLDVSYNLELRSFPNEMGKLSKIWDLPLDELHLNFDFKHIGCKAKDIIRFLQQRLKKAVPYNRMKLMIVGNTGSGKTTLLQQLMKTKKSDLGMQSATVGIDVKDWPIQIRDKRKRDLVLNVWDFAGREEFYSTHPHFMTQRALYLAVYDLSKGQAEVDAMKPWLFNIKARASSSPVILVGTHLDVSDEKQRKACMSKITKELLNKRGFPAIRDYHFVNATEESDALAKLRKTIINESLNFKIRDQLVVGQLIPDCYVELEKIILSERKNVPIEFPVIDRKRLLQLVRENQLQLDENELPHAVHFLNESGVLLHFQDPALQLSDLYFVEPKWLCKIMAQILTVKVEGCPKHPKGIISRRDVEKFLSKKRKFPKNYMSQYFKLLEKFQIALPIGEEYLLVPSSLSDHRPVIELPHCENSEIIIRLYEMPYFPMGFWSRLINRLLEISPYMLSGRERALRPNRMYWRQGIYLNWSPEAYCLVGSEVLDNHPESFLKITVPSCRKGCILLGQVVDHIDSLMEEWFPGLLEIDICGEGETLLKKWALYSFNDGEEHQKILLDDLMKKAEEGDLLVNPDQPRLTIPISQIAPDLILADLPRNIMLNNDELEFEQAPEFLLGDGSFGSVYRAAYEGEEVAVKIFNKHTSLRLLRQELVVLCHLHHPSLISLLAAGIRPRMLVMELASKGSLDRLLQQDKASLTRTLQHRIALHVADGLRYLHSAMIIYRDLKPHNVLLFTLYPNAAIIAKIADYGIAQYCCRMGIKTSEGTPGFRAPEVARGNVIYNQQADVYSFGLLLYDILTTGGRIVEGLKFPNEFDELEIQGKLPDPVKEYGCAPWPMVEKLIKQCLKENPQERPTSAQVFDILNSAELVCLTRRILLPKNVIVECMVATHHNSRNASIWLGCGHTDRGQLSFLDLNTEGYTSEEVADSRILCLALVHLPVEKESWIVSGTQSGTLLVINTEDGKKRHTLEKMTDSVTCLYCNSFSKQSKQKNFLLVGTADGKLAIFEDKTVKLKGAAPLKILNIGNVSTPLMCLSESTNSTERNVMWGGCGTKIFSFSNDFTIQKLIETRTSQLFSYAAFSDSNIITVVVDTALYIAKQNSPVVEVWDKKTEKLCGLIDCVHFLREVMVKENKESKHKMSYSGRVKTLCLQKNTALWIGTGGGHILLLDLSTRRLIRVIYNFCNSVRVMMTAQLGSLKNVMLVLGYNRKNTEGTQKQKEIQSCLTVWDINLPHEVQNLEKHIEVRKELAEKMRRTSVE

`CCC1C(C(=O)Nc2ccc3[nH]ncc3c2)=C(C)N(C)c2nnnn21` (racemic) [Example 8, 7-Ethyl-N-(1H-indazol-5-yl)-4,5-dimethyl-4H,7H-[1,2,3,4]tetrazolo[1,5-a]pyrimidine-6-carboxamide] was tested, and the IC50 [1] was 100 to 1000 nM and the IC50 [2] was at most 100 nM.
`CC1=C(C(=O)Nc2cc3cn[nH]c3cn2)C(C)n2nnnc2N1C` (racemic) [Example 23, 4,5,7-trimethyl-N-(1H-pyrazolo[3,4-c]pyridin-5-yl)-4,7-dihydrotetrazolo[1,5-a]pyrimidine-6-carboxamide] was tested, and the IC50 [1] was 100 to 1000 nM and the IC50 [2] was at most 100 nM.
`CC1=C(C(=O)Nc2ccc3[nH]ncc3c2)C(C)n2nnnc2N1C` (single isomer, unassigned) [Example 2a] gave an IC50 [1] of at most 100 nM and an IC50 [2] of at most 100 nM.
In the case of `CC1=C(C(=O)Nc2ccc3[nH]ncc3c2)C(C)n2nnnc2N1C` (single isomer, unassigned) [Example 2b], the IC50 [1] is reported as 1000 to 10000 nM and the IC50 [2] is reported as 100 to 1000 nM.
`CCC1C(C(=O)Nc2ccc3[nH]ncc3c2)=C(C)N(C)c2nnnn21` (single isomer, unassigned) [Example 8a] showed an IC50 [1] of 100 to 1000 nM and an IC50 [2] of at most 100 nM.
`CCC1C(C(=O)Nc2ccc3[nH]ncc3c2)=C(C)N(C)c2nnnn21` (single isomer, unassigned) [Example 8b] was tested, and the IC50 [1] was 100 to 1000 nM and the IC50 [2] was at most 100 nM.
`CC1=C(C(=O)Nc2ccc3[nH]nc(-c4ccnc(N5CCOCC5)c4)c3c2)[C@@H](C)n2nnnc2N1C` (single isomer, unassigned) [Example 24a] gave an IC50 [1] of at most 100 nM and an IC50 [2] of at most 100 nM.
`CC1=C(C(=O)Nc2ccc3[nH]nc(-c4ccnc(N5CCOCC5)c4)c3c2)[C@H](C)n2nnnc2N1C` (single isomer, unassigned) [Example 24b] showed an IC50 [1] of at most 100 nM and an IC50 [2] of at most 100 nM.
With `CC1=C(C(=O)Nc2ccc3[nH]ncc3c2)Cn2nnnc2N1C` [Example 1, N-(1H-Indazol-5-yl)-4,5-dimethyl-4H,7H-[1,2,3,4]tetrazolo[1,5-a]pyrimidine-6-carboxamide] the IC50 [1] was 100 to 1000 nM and the IC50 [2] was at most 100 nM.
Compound `CC1=C(C(=O)Nc2ccc3[nH]ncc3c2)C(C)n2nnnc2N1C` (stereo not shown) [Example 2, N-(1H-indazol-5-yl)-4,5,7-trimethyl-4H,7H-[1,2,3,4]tetrazolo[1,5-a]pyrimidine-6-carboxamide] has an IC50 [1] of 100 to 1000 nM and an IC50 [2] of at most 100 nM.
`CC1=C(C(=O)Nc2ccc3cn[nH]c3c2)Cn2nnnc2N1C` [Example 3, N-(1H-indazol-6-yl)-4,5-dimethyl-4H,7H-[1,2,3,4]tetrazolo[1,5-a]pyrimidine-6-carboxamide] was tested, and the IC50 [1] was 1000 to 10000 nM and the IC50 [2] was 1000 to 10000 nM.
`CC1=C(C(=O)Nc2ccc3[nH]ncc3c2)Cn2nnnc2N1CCN1CCOCC1` [Example 4, N-(1H-Indazol-5-yl)-5-methyl-4-[2-(morpholin-4-yl)ethyl]-4H,7H-[1,2,3,4]tetrazolo[1,5-a]pyrimidine-6-carboxamide] gave an IC50 [1] of 1000 to 10000 nM and an IC50 [2] of 1000 to 10000 nM.
For `CCC1=C(C(=O)Nc2ccc3[nH]ncc3c2)Cn2nnnc2N1C` [Example 5, 5-Ethyl-N-(1H-indazol-5-yl)-4-methyl-4H,7H-[1,2,3,4]tetrazolo[1,5-a]pyrimidine-6-carboxamide], the IC50 [1] was 100 to 1000 nM and the IC50 [2] was 100 to 1000 nM.
`CC1=C(C(=O)Nc2ccc3[nH]nc(-c4ccncc4)c3c2)Cn2nnnc2N1C` [Example 6, 4,5-dimethyl-N-(3-(pyridin-4-yl)-1H-indazol-5-yl)-4,7-dihydrotetrazolo[1,5-a]pyrimidine-6-carboxamide] was tested, and the IC50 [1] was at most 100 nM and the IC50 [2] was at most 100 nM.
With `CC1=C(C(=O)Nc2ccc3[nH]nc(-c4ccnc(N5CCOCC5)c4)c3c2)Cn2nnnc2N1C` [Example 7, 4,5-Dimethyl-N-(3-(2-morpholinopyridin-4-yl)-1H-indazol-5-yl)-4,7-dihydrotetrazolo[1,5-a]pyrimidine-6-carboxamide] the IC50 [1] was at most 100 nM and the IC50 [2] was at most 100 nM.
Work on `CC1=C(C(=O)Nc2ccc3[nH]nc(-c4cc(N5CCOCC5)ncn4)c3c2)Cn2nnnc2N1C` [Example 9, 4,5-Dimethyl-N-(3-(6-morpholinopyrimidin-4-yl)-1H-indazol-5-yl)-4,7-dihydrotetrazolo[1,5-a]pyrimidine-6-carboxamide] yielded an IC50 [1] of at most 100 nM and an IC50 [2] of at most 100 nM.
`CC1=C(C(=O)Nc2ccc3[nH]nc(Br)c3c2)Cn2nnnc2N1C` [Example 10, N-(3-Bromo-1H-indazol-5-yl)-4,5-dimethyl-4,7-dihydrotetrazolo[1,5-a]pyrimidine-6-carboxamide] was tested, and the IC50 [1] was at most 100 nM and the IC50 [2] was at most 100 nM.
`CC1=C(C(=O)Nc2ccc3[nH]nc(-c4ccc(S(N)(=O)=O)cc4)c3c2)Cn2nnnc2N1C` [Example 11, 4,5-Dimethyl-N-(3-(4-sulfamoylphenyl)-1H-indazol-5-yl)-4,7-dihydrotetrazolo[1,5-a]pyrimidine-6-carboxamide] gave an IC50 [1] of at most 100 nM and an IC50 [2] of at most 100 nM.
Work on `CC1=C(C(=O)Nc2ccc3[nH]ncc3c2)Cn2nnnc2N1C(=O)N(C)C` [Example 12, N^6-(1H-indazol-5-yl)-N^4,N^4,5-trimethyltetrazolo[1,5-a]pyrimidine-4,6(7H)-dicarboxamide] yielded an IC50 [1] of 100 to 1000 nM and an IC50 [2] of at most 100 nM.
Compound `CC1=C(C(=O)Nc2ccc3[nH]ncc3c2)Cn2nnnc2N1c1ccccc1` [Example 13, N-(1H-indazol-5-yl)-5-methyl-4-phenyl-4,7-dihydrotetrazolo[1,5-a]pyrimidine-6-carboxamide] has an IC50 [1] of at most 100 nM and an IC50 [2] of at most 100 nM.
Work on `CC1=C(C(=O)Nc2ccc3[nH]ncc3c2F)Cn2nnnc2N1C` [Example 14, N-(4-fluoro-1H-indazol-5-yl)-4,5-dimethyl-4,7-dihydrotetrazolo[1,5-a]pyrimidine-6-carboxamide] yielded an IC50 [1] of 1000 to 10000 nM and an IC50 [2] of 100 to 1000 nM.
Work on `CC1=C(C(=S)Nc2ccc3[nH]ncc3c2)Cn2nnnc2N1C` [Example 15, N-(1H-indazol-5-yl)-4,5-dimethyl-4,7-dihydrotetrazolo[1,5-a]pyrimidine-6-carbothioamide] yielded an IC50 [1] of 100 to 1000 nM and an IC50 [2] of at most 100 nM.
Work on `CC1=C(C(=O)Nc2cnc3n[nH]cc3c2)C(C)n2nnnc2N1C` (stereo not shown) [Example 16, 4,5,7-trimethyl-N-(2H-pyrazolo[3,4-b]pyridin-5-yl)-4,7-dihydrotetrazolo[1,5-a]pyrimidine-6-carboxamide] yielded an IC50 [1] of 1000 to 10000 nM and an IC50 [2] of 100 to 1000 nM.
`COc1cc2n[nH]cc2cc1NC(=O)C1=C(C)N(C)c2nnnn2C1` [Example 17, N-(6-methoxy-2H-indazol-5-yl)-4,5-dimethyl-4,7-dihydrotetrazolo[1,5-a]pyrimidine-6-carboxamide] gave an IC50 [1] of over 10000 nM and an IC50 [2] of 1000 to 10000 nM.
Work on `CC1=C(C(=O)Nc2ccc3[nH]nc(C(N)=O)c3c2)Cn2nnnc2N1C` [Example 18, N-(3-carbamoyl-2H-indazol-5-yl)-4,5-dimethyl-4,7-dihydrotetrazolo[1,5-a]pyrimidine-6-carboxamide] yielded an IC50 [1] of 100 to 1000 nM and an IC50 [2] of at most 100 nM.
In the case of `CC1=C(C(=O)Nc2cc3c[nH]nc3cc2F)Cn2nnnc2N1C` [Example 19, N-(6-fluoro-2H-indazol-5-yl)-4,5-dimethyl-4,7-dihydrotetrazolo[1,5-a]pyrimidine-6-carboxamide], the IC50 [1] is reported as 100 to 1000 nM and the IC50 [2] is reported as 100 to 1000 nM.
`CC1=C(C(=O)Nc2cc3c[nH]nc3cc2C(N)=O)Cn2nnnc2N1C` [Example 20, N-(6-carbamoyl-2H-indazol-5-yl)-4,5-dimethyl-4,7-dihydrotetrazolo[1,5-a]pyrimidine-6-carboxamide] was tested, and the IC50 [1] was 1000 to 10000 nM and the IC50 [2] was 1000 to 10000 nM.
`CC1=C(C(=O)Nc2cc3c[nH]nc3cc2N)Cn2nnnc2N1C` [Example 21, N-(6-amino-2H-indazol-5-yl)-4,5-dimethyl-4,7-dihydrotetrazolo[1,5-a]pyrimidine-6-carboxamide] was tested, and the IC50 [1] was 1000 to 10000 nM and the IC50 [2] was 1000 to 10000 nM.
In the case of `CC1=C(C(=O)Nc2ccc3n[nH]c(Br)c3c2)[C@@H](C)n2nnnc2N1C` [Example 22, (7R)—N-(3-bromo-2H-indazol-5-yl)-4,5,7-trimethyl-4,7-dihydrotetrazolo[1,5-a]pyrimidine-6-carboxamide], the IC50 [1] is reported as at most 100 nM and the IC50 [2] is reported as at most 100 nM.
With `CC1=C(C(=O)Nc2cc3c[nH]nc3cc2N)C(C)n2nnnc2N1C` (stereo not shown) [Example 25, N-(6-amino-2H-indazol-5-yl)-4,5,7-trimethyl-4,7-dihydrotetrazolo[1,5-a]pyrimidine-6-carboxamide] the IC50 [1] was 1000 to 10000 nM and the IC50 [2] was 1000 to 10000 nM.
For `CC1=C(C(=O)Nc2ccc3c(c2)CC(=O)N3)Cn2nnnc2N1C` [Example 29, 4,5-dimethyl-N-(2-oxoindolin-5-yl)-4,7-dihydrotetrazolo[1,5-a]pyrimidine-6-carboxamide], the IC50 [2] was 1000 to 10000 nM.
